Reference: PubChem BioAssay (NCI)
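How tested: cells in 96-well plates exposed to compound for 48 hours at five concentrations. Here, GI50 denotes the concentration required for 50% inhibition of growth. The concentration for full growth arrest is given as TGI.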

Experiments:
Test in all cases: NCI tumour cell line growth inhibition, 48 h
A549 NSCLC = system: A549 NSCLC
UACC-62 melanoma = system: UACC-62 melanoma
U251 CNS = system: U251 CNS
SK-MEL-2 melanoma = system: SK-MEL-2 melanoma
SN12C renal = system: SN12C renal
HOP-62 NSCLC = system: HOP-62 NSCLC
EKVX NSCLC = system: EKVX NSCLC
HL-60(TB) leukemia = system: HL-60(TB) leukemia
HT29 colon = system: HT29 colon
SNB-19 CNS = system: SNB-19 CNS

For `O=c1ccc2nc(-c3ccccc3)nn(-c3ccccn3)c-2c1`, the GI50 (A549 NSCLC) was 38.4 µM, the TGI (A549 NSCLC) was greater than 100 µM and the GI50 (UACC-62 melanoma) was 15 µM. For the same molecule, the TGI (UACC-62 melanoma) was 32.8 µM, the GI50 (U251 CNS) was 17.2 µM and the TGI (U251 CNS) was 42.4 µM. The GI50 (SK-MEL-2 melanoma) was 15 µM, the TGI (SK-MEL-2 melanoma) was 41.9 µM and the GI50 (SN12C renal) was 16.9 µM. The TGI (SN12C renal) was 37.9 µM, the GI50 (HOP-62 NSCLC) was 21.8 µM and the TGI (HOP-62 NSCLC) was 82.9 µM. For the same molecule, the GI50 (EKVX NSCLC) was 14.8 µM, the TGI (EKVX NSCLC) was 28.2 µM and the GI50 (HL-60(TB) leukemia) was 1.34 µM. The TGI (HL-60(TB) leukemia) was 4.33 µM, the GI50 (HT29 colon) was 3.2 µM and the TGI (HT29 colon) was 15.1 µM.
`CC(C)c1cc(CN(C)C)c(O)c(C(C)(C)C)c1` gave a TGI (A549 NSCLC) of 53.1 µM, a TGI (UACC-62 melanoma) greater than 100 µM and a TGI (U251 CNS) of 30 µM. It also gave a TGI (SK-MEL-2 melanoma) of 38.6 µM, a TGI (SN12C renal) of 33.1 µM and a TGI (HOP-62 NSCLC) of 62.9 µM. The TGI (SNB-19 CNS) was 53.4 µM, the TGI (EKVX NSCLC) was 64.4 µM and the TGI (HL-60(TB) leukemia) was 15.1 µM. For the same molecule, the TGI (HT29 colon) was greater than 100 µM.
In the case of `COC(=O)Nc1nc2cc(OC)c(OC)cc2c(=O)[nH]1`, the TGI (A549 NSCLC) is reported as greater than 100 µM, the TGI (UACC-62 melanoma) is reported as greater than 100 µM and the TGI (U251 CNS) is reported as greater than 100 µM. It also gave a TGI (SK-MEL-2 melanoma) greater than 100 µM, a TGI (SN12C renal) greater than 100 µM and a TGI (HOP-62 NSCLC) greater than 100 µM. The TGI (SNB-19 CNS) was greater than 100 µM, the TGI (EKVX NSCLC) was greater than 100 µM and the TGI (HL-60(TB) leukemia) was greater than 100 µM. The TGI (HT29 colon) was greater than 100 µM.
Molecule `N=C(c1ccc2ccccc2c1)c1ccccc1Cc1ccccc1` has a TGI (A549 NSCLC) greater than 100 µM, a TGI (UACC-62 melanoma) greater than 100 µM and a TGI (U251 CNS) greater than 100 µM. It also gave a TGI (SK-MEL-2 melanoma) of 49.6 µM, a TGI (SN12C renal) greater than 100 µM and a TGI (HOP-62 NSCLC) greater than 100 µM. It also gave a TGI (SNB-19 CNS) greater than 100 µM, a TGI (EKVX NSCLC) greater than 100 µM and a TGI (HL-60(TB) leukemia) of 55.1 µM. For the same molecule, the TGI (HT29 colon) was greater than 100 µM.
`NC(=O)C(N)=O` gave a TGI (A549 NSCLC) greater than 100 µM, a TGI (UACC-62 melanoma) greater than 100 µM and a TGI (U251 CNS) greater than 100 µM. For the same molecule, the TGI (SK-MEL-2 melanoma) was greater than 100 µM, the TGI (SN12C renal) was greater than 100 µM and the TGI (HOP-62 NSCLC) was greater than 100 µM. It also gave a TGI (SNB-19 CNS) greater than 100 µM, a TGI (EKVX NSCLC) greater than 100 µM and a TGI (HL-60(TB) leukemia) greater than 100 µM.
With `Nc1nc(N)c2c(n1)NC(=O)c1c(c3ccccc3n1Cc1ccc(Cl)cc1)C2` the TGI (A549 NSCLC) was 62.6 µM, the TGI (UACC-62 melanoma) was greater than 100 µM and the TGI (U251 CNS) was greater than 100 µM. For the same molecule, the TGI (SK-MEL-2 melanoma) was greater than 100 µM, the TGI (SN12C renal) was 38.2 µM and the TGI (HOP-62 NSCLC) was 57.5 µM. It also gave a TGI (SNB-19 CNS) greater than 100 µM, a TGI (EKVX NSCLC) greater than 100 µM and a TGI (HL-60(TB) leukemia) of 39.4 µM. It also gave a TGI (HT29 colon) greater than 100 µM.
Work on `CC(C)(C)N1C(C(=O)c2ccccc2)C1c1ccccc1` (centres undefined) yielded a TGI (A549 NSCLC) greater than 100 µM, a TGI (UACC-62 melanoma) greater than 100 µM and a TGI (U251 CNS) greater than 100 µM. The TGI (SN12C renal) was greater than 100 µM, the TGI (HOP-62 NSCLC) was greater than 100 µM and the TGI (SNB-19 CNS) was greater than 100 µM. The TGI (EKVX NSCLC) was greater than 100 µM, the TGI (HL-60(TB) leukemia) was greater than 100 µM and the TGI (HT29 colon) was greater than 100 µM.
`O=C(CSc1nc2ccccc2s1)c1sc2sc3ccccc3[n+]2c1[O-]` was tested, and the TGI (A549 NSCLC) was greater than 100 µM, the TGI (UACC-62 melanoma) was greater than 100 µM and the TGI (U251 CNS) was greater than 100 µM. The TGI (SK-MEL-2 melanoma) was greater than 100 µM, the TGI (SN12C renal) was greater than 100 µM and the TGI (HOP-62 NSCLC) was greater than 100 µM. It also gave a TGI (SNB-19 CNS) greater than 100 µM, a TGI (EKVX NSCLC) greater than 100 µM and a TGI (HL-60(TB) leukemia) greater than 100 µM. It also gave a TGI (HT29 colon) greater than 100 µM.
`O=C1c2ccccc2C(=O)c2c(Nc3ccc4c5c(cccc35)C(=O)c3ccccc3-4)cccc21` showed a TGI (A549 NSCLC) greater than 100 µM, a TGI (UACC-62 melanoma) greater than 100 µM and a TGI (U251 CNS) greater than 100 µM. It also gave a TGI (SK-MEL-2 melanoma) greater than 100 µM, a TGI (SN12C renal) greater than 100 µM and a TGI (HOP-62 NSCLC) greater than 100 µM. It also gave a TGI (SNB-19 CNS) greater than 100 µM, a TGI (EKVX NSCLC) greater than 100 µM and a TGI (HT29 colon) greater than 100 µM.
`Nc1c2c(=O)[nH]c(=O)c2c(N)c2c(=O)c3ccccc3c(=O)c12` showed a TGI (A549 NSCLC) greater than 23.1 µM, a TGI (UACC-62 melanoma) of 3.25 µM and a TGI (U251 CNS) greater than 90 µM. It also gave a TGI (SK-MEL-2 melanoma) of 6.2 µM, a TGI (SN12C renal) of 3.17 µM and a TGI (HOP-62 NSCLC) of 6.85 µM. It also gave a TGI (SNB-19 CNS) greater than 57.4 µM, a TGI (EKVX NSCLC) of 9.55 µM and a TGI (HL-60(TB) leukemia) greater than 100 µM. For the same molecule, the TGI (HT29 colon) was 2.83 µM.
Work on `CC(C)(C)OC(=O)c1cnc(Cl)cn1` yielded a TGI (A549 NSCLC) greater than 100 µM, a TGI (UACC-62 melanoma) greater than 100 µM and a TGI (U251 CNS) greater than 100 µM. It also gave a TGI (SK-MEL-2 melanoma) of 80.6 µM, a TGI (SN12C renal) greater than 100 µM and a TGI (HOP-62 NSCLC) greater than 100 µM. The TGI (SNB-19 CNS) was greater than 100 µM, the TGI (EKVX NSCLC) was 64.3 µM and the TGI (HT29 colon) was greater than 100 µM.
Molecule `C=CC[N+]12CN3CN(CN(C3)C1)C2` has a TGI (A549 NSCLC) greater than 100 µM, a TGI (UACC-62 melanoma) of 80.2 µM and a TGI (U251 CNS) greater than 100 µM. It also gave a TGI (SK-MEL-2 melanoma) greater than 100 µM, a TGI (SN12C renal) of 60.2 µM and a TGI (HOP-62 NSCLC) greater than 100 µM. For the same molecule, the TGI (SNB-19 CNS) was greater than 100 µM, the TGI (EKVX NSCLC) was 46.4 µM and the TGI (HL-60(TB) leukemia) was greater than 100 µM. It also gave a TGI (HT29 colon) of 42.8 µM.
For `C#CCOc1c(C(=O)OCC)c(=O)n(C)c2ccccc12`, the TGI (UACC-62 melanoma) was greater than 100 µM, the TGI (U251 CNS) was greater than 100 µM and the TGI (SK-MEL-2 melanoma) was greater than 100 µM. For the same molecule, the TGI (SN12C renal) was greater than 100 µM, the TGI (SNB-19 CNS) was greater than 100 µM and the TGI (EKVX NSCLC) was greater than 100 µM. The TGI (HL-60(TB) leukemia) was greater than 100 µM and the TGI (HT29 colon) was greater than 100 µM.
Work on `COc1ccc(C[C@H](N)C(=O)NC2C(CO)OC(n3cnc4c(N(C)C)ncnc43)C2O)cc1` (some centres undefined) yielded a TGI (A549 NSCLC) of 2.55 µM, a TGI (UACC-62 melanoma) of 0.411 µM and a TGI (U251 CNS) of 0.131 µM. For the same molecule, the TGI (SK-MEL-2 melanoma) was 3.26 µM, the TGI (HOP-62 NSCLC) was 2.07 µM and the TGI (EKVX NSCLC) was 1.06 µM. It also gave a TGI (HL-60(TB) leukemia) of 0.442 µM.
